Converted amounts (≈) assume the structure as drawn.
Columns and labels:
E. coli Ec11 [1] = assay: BMD susceptibility test; type: cell-based, Escherichia coli; conditions: unit assumed
E. coli Ec11 [2] = assay: FaAST (FDAA metabolic labeling); type: cell-based, Escherichia coli; conditions: unit assumed
Protocol: (§1) The specific experimental steps are as follows: • 1. Take the colony to be tested that has been cultured overnight on the plate and fully mix it in normal saline to make a uniform bacterial solution. Dilute it into CAMHB medium to make a bacterial solution with OD600=0.05. • 2. Add 45 μl antibiotic solutions to be tested of different concentrations to 96-well plates (see Table 3 for antibiotic concentration gradient settings). • 3. Add 50 μl of bacterial solution prepared in Step 1 to the 96-well plate and mix well. • 4.5 μl of 10 mM Cy5-DAA probe was added to each well (final concentration was 0.15 mM, and its structure was shown in FIG. 1). After mixing, the probe was incubated for 2 hours in the dark. • 5. After dilution with 200 μl PBS solution, the fluorescence intensity of each sample was detected by flow cytometry. The flow detection results are shown in the attached FIG. 4-5, showing the curve of antibiotic concentration gradient and fluorescence intensity, and the MIC (minimum inhibitory concentration) is obtained by referring to this curve.
(§2) Antibiotic resistant strains are shown in bold in the table below.

Ec ATCC 25922 [3] = assay: FaAST (FDAA metabolic labeling); type: cell-based, Escherichia coli; conditions: unit assumed
Protocol: as §1, §2

E. coli Ec13 [4] = assay: BMD susceptibility test; type: cell-based, Escherichia coli; conditions: unit assumed
E. coli Ec13 [5] = assay: FaAST (FDAA metabolic labeling); type: cell-based, Escherichia coli; conditions: unit assumed
Protocol: as §1, with “cytometry.” for “cytometry. The flow detection results are shown in the attached FIG. 4-5, showing the curve of antibiotic concentration gradient and fluorescence intensity, and the MIC (minimum inhibitory concentration) is obtained by referring to this curve.”

Ec ATCC 25922 [6] = assay: BMD susceptibility test; type: cell-based, Escherichia coli; conditions: unit assumed
P. aeruginosa Pa2 [7] = assay: BMD susceptibility test; type: cell-based, Pseudomonas aeruginosa; conditions: unit assumed
P. aeruginosa Pa3 [8] = assay: BMD susceptibility test; type: cell-based, Pseudomonas aeruginosa; conditions: unit assumed
P. aeruginosa Pa2 [9] = assay: FaAST (FDAA metabolic labeling); type: cell-based, Pseudomonas aeruginosa; conditions: unit assumed
Protocol: as §1, §2

P. aeruginosa Pa3 [10] = assay: FaAST (FDAA metabolic labeling); type: cell-based, Pseudomonas aeruginosa; conditions: unit assumed
Protocol: as §1, §2

Pa ATCC 27853 [11] = assay: FaAST (FDAA metabolic labeling); type: cell-based, Pseudomonas aeruginosa; conditions: unit assumed
Protocol: as §1, §2

Pa ATCC 27853 [12] = assay: BMD susceptibility test; type: cell-based, Pseudomonas aeruginosa; conditions: unit assumed
A. baumannii Ab19 [13] = assay: BMD susceptibility test; type: cell-based, Acinetobacter baumannii; conditions: unit assumed
A. baumannii Ab19 [14] = assay: FaAST (FDAA metabolic labeling); type: cell-based, Acinetobacter baumannii; conditions: unit assumed
Protocol: as §1, §2

K. pneumoniae Kp6 [15] = assay: BMD susceptibility test; type: cell-based, Klebsiella pneumoniae; conditions: unit assumed
K. pneumoniae Kp6 [16] = assay: FaAST (FDAA metabolic labeling); type: cell-based, Klebsiella pneumoniae; conditions: unit assumed
Protocol: as §1, with “cytometry.” for “cytometry. The flow detection results are shown in the attached FIG. 4-5, showing the curve of antibiotic concentration gradient and fluorescence intensity, and the MIC (minimum inhibitory concentration) is obtained by referring to this curve.”

[17] = tested on: Klebsiella pneumoniae KPN6; assay: FaAST with DAA-Tetra probe; type: cell-based; conditions: unit assumed
Protocol: The specific experimental steps are as follows: • 1. The tested colonies cultured overnight on the plate were picked and mixed thoroughly in 2× Cation-Adjusted Mueller Hinton Broth medium (2×CAMHB) to make bacterial suspension with turbidity of OD600=0.1. • 2. […] Add 50 μL of the bacterial solution prepared in step 1 (the final concentration of the bacterial solution is OD600=0.05) to the 96-well plate, and add 5 μL of 3 mM DAA-Tetra probe (the final concentration is 0.15 mM), mix well, and incubate in the dark at 37° C. 120 rpm for 2 hours. • 4. After culture, dilute the mixed bacterial solution 10 times with PBS solution, and detect the fluorescence intensity of each sample with flow cytometry. The flow detection result is shown in FIG. 14-19, and the arrow is for the MIC value. The minimum inhibitory concentration of antibiotics was obtained according to the fluorescence signal intensity of flow detection, and the statistical results are shown in Table 6.

[18] = tested on: Klebsiella pneumoniae KPN6; assay: VITEK drug sensitivity test; type: cell-based; conditions: unit assumed
Ec ATCC 25922 [19] = conditions: cited from earlier work
Pa ATCC 27853 [20] = conditions: cited from earlier work
E.coli 1113 [21] = assay: FDAA metabolic labeling susceptibility test (Cy5-DAA probe, flow cytometry); type: cell-based, Escherichia coli; conditions: Escherichia coli; E.coli 1113; Cy5-DAA probe, 2 hours; read-out: MIC, FDAA
Protocol: as §1

E.coli 1146 [22] = assay: as above; type: cell-based, Escherichia coli; conditions: Escherichia coli; E.coli 1146; Cy5-DAA probe, 2 hours; read-out: MIC, FDAA
Protocol: as §1

E.coli 1113 [23] = assay: Vitek 2 drug sensitivity test; type: cell-based, Escherichia coli; on Sensibility: key: S: Drug sensitive; R: Drug resistance
E.coli 1146 [24] = assay: Vitek 2 drug sensitivity test; type: cell-based, Escherichia coli; on Sensibility: key: S: Drug sensitive; R: Drug resistance
A. baumannii Ab16 [25] = assay: BMD susceptibility test; type: cell-based, Acinetobacter baumannii; conditions: unit assumed
A. baumannii Ab16 [26] = assay: FaAST (FDAA metabolic labeling); type: cell-based, Acinetobacter baumannii; conditions: unit assumed
Protocol: as §1, with “cytometry.” for “cytometry. The flow detection results are shown in the attached FIG. 4-5, showing the curve of antibiotic concentration gradient and fluorescence intensity, and the MIC (minimum inhibitory concentration) is obtained by referring to this curve.”

| SMILES | BMD (MIC) (E. coli Ec11 [1]) [mg/L] | FaAST (MIC) (E. coli Ec11 [2]) [mg/L] | FaAST (MIC) (Ec ATCC 25922 [3]) [mg/L] | BMD (MIC) (E. coli Ec13 [4]) [mg/L] | FaAST (MIC) (E. coli Ec13 [5]) [mg/L] | BMD (MIC) (Ec ATCC 25922 [6]) [mg/L] | BMD (MIC) (P. aeruginosa Pa2 [7]) [mg/L] | BMD (MIC) (P. aeruginosa Pa3 [8]) [mg/L] | FaAST (MIC) (P. aeruginosa Pa2 [9]) [mg/L] | FaAST (MIC) (P. aeruginosa Pa3 [10]) [mg/L] | FaAST (MIC) (Pa ATCC 27853 [11]) [mg/L] | BMD (MIC) (Pa ATCC 27853 [12]) [mg/L] | BMD (MIC) (A. baumannii Ab19 [13]) [mg/L] | FaAST (MIC) (A. baumannii Ab19 [14]) [mg/L] | BMD (MIC) (K. pneumoniae Kp6 [15]) [mg/L] | FaAST (MIC) (K. pneumoniae Kp6 [16]) [mg/L] | CLSI QC range (Ec ATCC 25922 [19]) | CLSI QC range (Pa ATCC 27853 [20]) | other results |
| --- | --- | --- | --- | --- | --- | --- | --- | --- | --- | --- | --- | --- | --- | --- | --- | --- | --- | --- | --- |
| NCC[C@H](O)C(=O)N[C@@H]1C[C@H](N)[C@@H](O[C@H]2O[C@H](CN)[C@@H](O)[C@H](O)[C@H]2O)[C@H](O)[C@H]1O[C@H]1O[C@H](CO)[C@@H](O)[C@H](N)[C@H]1O [Amikacin] | 4 | 8 | 2 | 2 | 1 | 1 | 2 | 4 | 0.5 | 8 | 4 | 2 | 2 | 2 | 0.5 | 0.5 | 0.5-4^ | 1-4 | MIC, FaAST [17]: 0.5 mg/L (≈ 0.854 µM); MIC, VITEK [18]: 0.5 mg/L (≈ 0.854 µM) |
| CO/N=C(\C(=O)N[C@@H]1C(=O)N2C(C(=O)[O-])=C(C[N+]3(C)CCCC3)CS[C@H]12)c1csc(N)n1 [Cefepime, cefepime] | ≤ 0.25 | 0.5 | ≤ 0.25 | > 64 | > 128 | ≤ 0.25 | 1 | 8 | 0.5 | 4 | 2 | 2 | 1 | 1 | ≤ 0.25 | 0.5 | 0.016-0.12 | 0.5-4 | MIC (E.coli 1113 [21]): ≥ 128 mg/L; MIC (E.coli 1146 [22]): 4 mg/L (≈ 8.32 µM); MIC, Vitek 2 (E.coli 1113 [23]): > 64 mg/L; Sensibility (E.coli 1113 [23]): R; Sensibility (E.coli 1146 [24]): S; MIC (E.coli 1146 [24]; Escherichia coli): ≤ 1 mg/L; BMD (MIC) (A. baumannii Ab16 [25]): 128 mg/L; FaAST (MIC) (A. baumannii Ab16 [26]): 64 mg/L |

— patent publication US20240240224A1, “FLUORESCENT D-TYPE AMINO ACID METABOLISM MARKER-BASED METHOD FOR DETECTING ANTIBACTERIAL DRUG SENSITIVITY TEST” (priority 2020, published 2024)
